Data taken from publication PMC3559828 (PLoS ONE, 2013).
Bridge positions count the residues as written; N and C are the ends. Peptide text beside a SMILES is read from it.

What was measured:
Rat α3β2 nAChR = target: T1, Rat α3β2 nAChR (Rattus norvegicus, UniProt P04757+P12390); assay: cell-based
T1 construct: expressed in transfected cells; host or cells: Xenopus oocytes injected with cRNA

Rat α2β2 nAChR = target: T2, Rat α2β2 nAChR (Rattus norvegicus, UniProt P12389+P12390); assay: cell-based
T2 construct: expressed in transfected cells; host or cells: Xenopus oocytes injected with cRNA

Rat α4β4 nAChR = target: T3, Rat α4β4 nAChR (Rattus norvegicus, UniProt P09483+P12392); assay: cell-based
T3 construct: expressed in transfected cells; host or cells: Xenopus oocytes injected with cRNA

Rat α9α10 nAChR = target: T4, Rat α9α10 nAChR (Rattus norvegicus, UniProt P43144+Q9JLB5); assay: cell-based
T4 construct: expressed in transfected cells; host or cells: Xenopus oocytes injected with cRNA

Rat α2β4 nAChR = target: T5, Rat α2β4 nAChR (Rattus norvegicus, UniProt P12389+P12392); assay: cell-based
T5 construct: expressed in transfected cells; host or cells: Xenopus oocytes injected with cRNA

Rat α4β2 nAChR = target: T6, Rat α4β2 nAChR (Rattus norvegicus, UniProt P09483+P12390); assay: cell-based
T6 construct: expressed in transfected cells; host or cells: Xenopus oocytes injected with cRNA

Rat α7 nAChR = target: T7, Rat α7 nAChR (Rattus norvegicus, UniProt Q05941); assay: cell-based
T7 construct: expressed in transfected cells; host or cells: Xenopus oocytes injected with cRNA

Rat α6/α3β2β3 nAChR = target: T8, Rat α6/α3β2β3 nAChR (Rattus norvegicus, UniProt P04757+P12390+P12391+P43143); assay: cell-based
T8 construct: expressed in transfected cells; host or cells: Xenopus oocytes injected with cRNA

Rat α3β4 nAChR = target: T9, Rat α3β4 nAChR (Rattus norvegicus, UniProt P04757+P12392); assay: cell-based
T9 construct: expressed in transfected cells; host or cells: Xenopus oocytes injected with cRNA

Rat α6/α3β4 nAChR = target: T10, Rat α6/α3β4 nAChR (Rattus norvegicus, UniProt P04757+P12392+P43143); assay: cell-based
T10 construct: expressed in transfected cells; host or cells: Xenopus oocytes injected with cRNA

α9α10 nAChR [1] = target: T11, α9α10 nAChR (Rattus norvegicus, UniProt P43144+Q9JLB5); format: cell-based
T11 construct: expressed in transfected cells; host or cells: Xenopus oocytes injected with cRNA

α3β4 nAChR = conditions: cited from earlier work
α6/α3β2β3 nAChR = conditions: cited from earlier work
GABAB receptors = conditions: cited from earlier work
α9α10 nAChR [2] = conditions: cited from earlier work

T4 sequence (P43144 26-479 limits assumed): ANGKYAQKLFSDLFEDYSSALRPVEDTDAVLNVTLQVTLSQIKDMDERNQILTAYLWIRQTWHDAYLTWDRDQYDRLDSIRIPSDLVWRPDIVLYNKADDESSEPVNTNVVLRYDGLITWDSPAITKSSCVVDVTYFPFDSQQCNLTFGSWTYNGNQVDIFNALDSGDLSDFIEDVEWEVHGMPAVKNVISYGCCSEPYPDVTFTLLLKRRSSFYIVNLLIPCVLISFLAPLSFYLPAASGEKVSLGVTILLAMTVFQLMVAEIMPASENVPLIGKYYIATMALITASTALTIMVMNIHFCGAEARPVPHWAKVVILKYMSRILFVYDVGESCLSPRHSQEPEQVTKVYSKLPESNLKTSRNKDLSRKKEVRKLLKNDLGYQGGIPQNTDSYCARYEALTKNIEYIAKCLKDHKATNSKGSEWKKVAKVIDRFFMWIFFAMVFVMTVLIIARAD
T4 sequence (Q9JLB5 25-447 limits assumed): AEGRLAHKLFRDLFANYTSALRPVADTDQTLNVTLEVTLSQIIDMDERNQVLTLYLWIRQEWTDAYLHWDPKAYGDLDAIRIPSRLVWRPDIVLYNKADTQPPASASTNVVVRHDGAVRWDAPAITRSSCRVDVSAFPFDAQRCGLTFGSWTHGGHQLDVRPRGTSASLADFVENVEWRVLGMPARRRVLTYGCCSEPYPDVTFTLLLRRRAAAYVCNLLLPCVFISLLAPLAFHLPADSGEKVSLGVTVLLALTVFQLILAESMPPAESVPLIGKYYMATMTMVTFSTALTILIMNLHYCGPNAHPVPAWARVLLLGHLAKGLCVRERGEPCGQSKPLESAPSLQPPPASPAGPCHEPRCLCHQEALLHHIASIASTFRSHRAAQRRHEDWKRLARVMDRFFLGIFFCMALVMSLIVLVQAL
T9 sequence (P04757 26-499 limits assumed): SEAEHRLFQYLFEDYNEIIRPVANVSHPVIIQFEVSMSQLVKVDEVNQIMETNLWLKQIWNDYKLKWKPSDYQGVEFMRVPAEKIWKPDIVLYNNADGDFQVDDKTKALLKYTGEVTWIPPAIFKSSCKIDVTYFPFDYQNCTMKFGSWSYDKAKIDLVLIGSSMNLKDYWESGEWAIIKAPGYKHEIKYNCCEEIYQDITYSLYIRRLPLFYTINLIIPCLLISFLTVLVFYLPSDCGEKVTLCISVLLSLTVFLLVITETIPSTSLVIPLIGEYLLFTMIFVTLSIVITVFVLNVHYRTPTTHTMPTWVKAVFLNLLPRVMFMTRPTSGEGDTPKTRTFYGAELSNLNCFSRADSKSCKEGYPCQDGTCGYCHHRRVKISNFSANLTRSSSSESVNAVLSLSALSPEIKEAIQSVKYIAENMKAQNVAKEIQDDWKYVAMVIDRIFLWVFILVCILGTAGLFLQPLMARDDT
T9 sequence (P12392 21-495 limits assumed): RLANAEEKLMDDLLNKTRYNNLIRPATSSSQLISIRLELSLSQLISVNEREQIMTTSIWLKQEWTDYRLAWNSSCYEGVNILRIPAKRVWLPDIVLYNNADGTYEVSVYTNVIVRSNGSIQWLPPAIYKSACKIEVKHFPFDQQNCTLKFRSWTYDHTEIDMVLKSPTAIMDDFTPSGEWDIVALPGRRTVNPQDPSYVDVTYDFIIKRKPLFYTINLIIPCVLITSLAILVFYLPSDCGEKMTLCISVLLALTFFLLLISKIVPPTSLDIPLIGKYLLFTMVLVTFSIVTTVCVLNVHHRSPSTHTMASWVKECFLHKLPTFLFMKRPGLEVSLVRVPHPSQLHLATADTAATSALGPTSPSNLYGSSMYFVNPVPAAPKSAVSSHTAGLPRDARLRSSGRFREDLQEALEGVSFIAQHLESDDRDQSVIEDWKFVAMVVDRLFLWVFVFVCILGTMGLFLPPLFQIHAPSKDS
T6 sequence (P09483 31-630 limits assumed): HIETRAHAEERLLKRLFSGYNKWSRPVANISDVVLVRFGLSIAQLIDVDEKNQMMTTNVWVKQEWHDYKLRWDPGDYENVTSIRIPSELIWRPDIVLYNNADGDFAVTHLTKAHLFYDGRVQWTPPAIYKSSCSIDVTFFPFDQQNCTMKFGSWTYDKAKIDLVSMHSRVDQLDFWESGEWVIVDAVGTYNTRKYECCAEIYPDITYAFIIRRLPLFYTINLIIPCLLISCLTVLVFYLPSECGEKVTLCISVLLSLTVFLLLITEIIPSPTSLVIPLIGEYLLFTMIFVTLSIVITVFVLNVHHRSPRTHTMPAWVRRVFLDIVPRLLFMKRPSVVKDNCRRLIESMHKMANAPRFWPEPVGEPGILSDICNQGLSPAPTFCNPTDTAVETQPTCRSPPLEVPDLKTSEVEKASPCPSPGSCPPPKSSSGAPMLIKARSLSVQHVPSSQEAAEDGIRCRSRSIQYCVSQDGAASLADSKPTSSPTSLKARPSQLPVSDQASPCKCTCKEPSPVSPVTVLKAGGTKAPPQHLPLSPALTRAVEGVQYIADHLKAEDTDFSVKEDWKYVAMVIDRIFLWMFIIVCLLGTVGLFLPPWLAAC
T6 sequence (P12390 25-500 limits assumed): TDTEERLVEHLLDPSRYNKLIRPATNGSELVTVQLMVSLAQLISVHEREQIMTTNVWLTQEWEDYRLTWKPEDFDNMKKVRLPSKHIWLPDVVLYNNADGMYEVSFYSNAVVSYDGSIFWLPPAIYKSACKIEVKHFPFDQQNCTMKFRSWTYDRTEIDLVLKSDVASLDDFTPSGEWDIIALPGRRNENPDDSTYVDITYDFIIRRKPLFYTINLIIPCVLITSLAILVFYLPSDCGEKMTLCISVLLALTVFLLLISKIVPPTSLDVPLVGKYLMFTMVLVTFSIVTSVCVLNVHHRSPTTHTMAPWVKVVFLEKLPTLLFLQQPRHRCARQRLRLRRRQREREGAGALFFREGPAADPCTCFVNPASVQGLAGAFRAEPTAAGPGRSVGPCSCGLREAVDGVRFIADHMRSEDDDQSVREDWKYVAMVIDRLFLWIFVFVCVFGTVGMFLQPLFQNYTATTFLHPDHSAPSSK
T7 sequence (Q05941 23-502 limits assumed): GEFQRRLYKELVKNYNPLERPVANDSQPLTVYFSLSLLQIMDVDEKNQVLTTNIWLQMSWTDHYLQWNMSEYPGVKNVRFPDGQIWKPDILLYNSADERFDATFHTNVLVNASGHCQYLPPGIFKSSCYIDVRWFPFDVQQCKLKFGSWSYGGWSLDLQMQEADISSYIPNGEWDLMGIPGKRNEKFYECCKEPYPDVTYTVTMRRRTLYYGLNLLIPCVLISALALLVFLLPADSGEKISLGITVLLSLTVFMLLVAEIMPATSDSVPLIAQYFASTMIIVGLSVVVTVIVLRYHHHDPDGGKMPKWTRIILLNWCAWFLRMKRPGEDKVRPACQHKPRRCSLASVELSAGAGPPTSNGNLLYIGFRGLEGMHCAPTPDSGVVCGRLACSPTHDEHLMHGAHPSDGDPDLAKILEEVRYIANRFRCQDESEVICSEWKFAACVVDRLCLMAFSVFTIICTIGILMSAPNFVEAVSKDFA
T10 sequence (P43143+P04757 fused with the stated changes): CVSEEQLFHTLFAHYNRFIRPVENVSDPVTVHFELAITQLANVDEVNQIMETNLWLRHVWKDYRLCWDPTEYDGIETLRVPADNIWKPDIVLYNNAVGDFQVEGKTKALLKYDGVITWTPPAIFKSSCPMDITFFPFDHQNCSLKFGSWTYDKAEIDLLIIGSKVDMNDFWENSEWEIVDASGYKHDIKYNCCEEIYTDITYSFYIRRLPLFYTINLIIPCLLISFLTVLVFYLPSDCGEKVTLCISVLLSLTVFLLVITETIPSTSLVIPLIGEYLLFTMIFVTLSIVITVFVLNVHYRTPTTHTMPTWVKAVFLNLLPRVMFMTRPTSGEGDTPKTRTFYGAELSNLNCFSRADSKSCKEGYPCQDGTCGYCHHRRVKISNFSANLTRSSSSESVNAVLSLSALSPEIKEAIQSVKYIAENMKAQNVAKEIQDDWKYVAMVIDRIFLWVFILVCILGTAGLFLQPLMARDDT
T10 sequence (P12392 21-495): as the sequence (P12392 21-495 limits assumed) above
T1 sequence (P04757 26-499 limits assumed): as the sequence (P04757 26-499 limits assumed) above
T1 sequence (P12390 25-500 limits assumed): as the sequence (P12390 25-500 limits assumed) above
T3 sequence (P09483 31-630 limits assumed): as the sequence (P09483 31-630 limits assumed) above
T3 sequence (P12392 21-495 limits assumed): as the sequence (P12392 21-495 limits assumed) above
T5 sequence (P12389 28-511 limits assumed): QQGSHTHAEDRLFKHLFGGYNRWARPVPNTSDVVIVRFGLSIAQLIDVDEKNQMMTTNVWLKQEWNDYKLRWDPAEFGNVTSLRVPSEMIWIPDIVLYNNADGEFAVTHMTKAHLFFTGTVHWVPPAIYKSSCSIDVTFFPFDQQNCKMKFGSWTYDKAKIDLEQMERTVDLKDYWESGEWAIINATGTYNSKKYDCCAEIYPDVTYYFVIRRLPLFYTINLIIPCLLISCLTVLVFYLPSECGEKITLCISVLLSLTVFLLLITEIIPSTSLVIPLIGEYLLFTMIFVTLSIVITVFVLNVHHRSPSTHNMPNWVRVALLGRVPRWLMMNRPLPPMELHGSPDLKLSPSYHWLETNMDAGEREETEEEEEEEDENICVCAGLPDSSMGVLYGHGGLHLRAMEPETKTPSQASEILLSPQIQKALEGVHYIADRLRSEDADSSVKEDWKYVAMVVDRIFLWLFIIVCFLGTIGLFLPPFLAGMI
T5 sequence (P12392 21-495 limits assumed): as the sequence (P12392 21-495 limits assumed) above
T2 sequence (P12389 28-511 limits assumed): as the sequence (P12389 28-511 limits assumed) above
T2 sequence (P12390 25-500 limits assumed): as the sequence (P12390 25-500 limits assumed) above
T11 sequence (P43144 26-479 limits assumed): as the sequence (P43144 26-479 limits assumed) above
T11 sequence (Q9JLB5 25-447 limits assumed): as the sequence (Q9JLB5 25-447 limits assumed) above

With `CC(C)C[C@@H]1NC(=O)[C@@H](NC(=O)[C@H](CCCNC(=N)N)NC(=O)[C@@H](N)C(C)C)CSSC[C@@H]2NC(=O)[C@H](CSSC[C@@H](C(=O)N[C@H](C(=O)N[C@@H](Cc3ccc(O)cc3)C(=O)N[C@@H](Cc3ccc(O)cc3)C(=O)N[C@H](C(=O)N[C@@H](CCC(N)=O)C(=O)N[C@@H](CO)C(=O)N[C@@H](CCCNC(=N)N)C(=O)N[C@@H](CCC(=O)O)C(=O)O)[C@@H](C)O)C(C)C)NC(=O)[C@H](CCCNC(=N)N)NC(=O)[C@H](CO)NC(=O)[C@H](Cc3c[nH]cn3)NC(=O)[C@H](CCCNC(=N)N)NC(=O)[C@H](C)NC(=O)[C@H](Cc3ccccc3)NC(=O)[C@H](CO)NC(=O)[C@@H]3CCCN3C(=O)CNC(=O)[C@H](CCCCN)NC(=O)[C@H](CCC(N)=O)NC2=O)NC(=O)[C@@H]2CCCN2C(=O)[C@@H]2CCCN2C(=O)[C@H](CCCNC(=N)N)NC(=O)[C@H](Cc2ccccc2)NC(=O)[C@H](CC(C)C)NC(=O)[C@H](CCCCN)NC(=O)[C@H](CC(N)=O)NC(=O)[C@@H]2CCCN2C(=O)[C@H](CCC(N)=O)NC(=O)[C@H](C)NC(=O)CNC(=O)[C@H](CO)NC(=O)[C@H](CCCCN)NC(=O)[C@H](CCC(=O)O)NC1=O` [αB-VxXXIVA [1], [3]] (H-VRCLEKSGAQPNKLFRPPCCQKGPSFARHSRCVYYTQSRE-OH; disulfide 3-20, 19-32) the IC50 (Rat α3β2 nAChR) was > 30 µM, the IC50 (Rat α2β2 nAChR) was > 30 µM and the IC50 (Rat α4β4 nAChR) was > 30 µM. The IC50 (Rat α9α10 nAChR) was 3.9 µM, the IC50 (Rat α2β4 nAChR) was > 30 µM and the IC50 (Rat α4β2 nAChR) was > 30 µM. For the same molecule, the IC50 (Rat α7 nAChR) was > 30 µM, the IC50 (Rat α6/α3β2β3 nAChR) was > 30 µM and the IC50 (Rat α3β4 nAChR) was > 30 µM. The IC50 (Rat α6/α3β4 nAChR) was > 30 µM.

In the case of `CC(C)C[C@@H]1NC(=O)[C@@H](NC(=O)[C@H](CCCNC(=N)N)NC(=O)[C@@H](N)C(C)C)CSSC[C@@H](C(=O)N[C@H](C(=O)N[C@@H](Cc2ccc(O)cc2)C(=O)N[C@@H](Cc2ccc(O)cc2)C(=O)N[C@H](C(=O)N[C@@H](CCC(N)=O)C(=O)N[C@@H](CO)C(=O)N[C@@H](CCCNC(=N)N)C(=O)N[C@@H](CCC(=O)O)C(=O)O)[C@@H](C)O)C(C)C)NC(=O)[C@H](CCCNC(=N)N)NC(=O)[C@H](CO)NC(=O)[C@H](Cc2c[nH]cn2)NC(=O)[C@H](CCCNC(=N)N)NC(=O)[C@H](C)NC(=O)[C@H](Cc2ccccc2)NC(=O)[C@H](CO)NC(=O)[C@@H]2CCCN2C(=O)CNC(=O)[C@H](CCCCN)NC(=O)[C@H](CCC(N)=O)NC(=O)[C@@H]2CSSC[C@H](NC(=O)[C@@H]3CCCN3C(=O)[C@@H]3CCCN3C(=O)[C@H](CCCNC(=N)N)NC(=O)[C@H](Cc3ccccc3)NC(=O)[C@H](CC(C)C)NC(=O)[C@H](CCCCN)NC(=O)[C@H](CC(N)=O)NC(=O)[C@@H]3CCCN3C(=O)[C@H](CCC(N)=O)NC(=O)[C@H](C)NC(=O)CNC(=O)[C@H](CO)NC(=O)[C@H](CCCCN)NC(=O)[C@H](CCC(=O)O)NC1=O)C(=O)N2` [αB-VxXXIVA [1], [4]] (H-VRCLEKSGAQPNKLFRPPCCQKGPSFARHSRCVYYTQSRE-OH; disulfide 3-32, 19-20), the IC50 (Rat α9α10 nAChR) is reported as > 30 µM, the “activity at nAChRs (in words)” value (Rat α9α10 nAChR) is reported as “inactive” and the “block of α9α10 current” value (Rat α9α10 nAChR) is reported as “less than 15%”. For the same molecule, the “block in the presence of Ba++ (in words)” value (α9α10 nAChR [1]) was “did not potently block”, the IC50 (Rat α4β2 nAChR) was > 30 µM and the IC50 (Rat α7 nAChR) was > 30 µM. The IC50 (Rat α3β4 nAChR) was > 30 µM.

With `CC(C)C[C@@H]1NC(=O)[C@@H](NC(=O)[C@H](CCCNC(=N)N)NC(=O)[C@@H](N)C(C)C)CSSC[C@@H](C(=O)N[C@H]2CSSC[C@@H](C(=O)N[C@H](C(=O)N[C@@H](Cc3ccc(O)cc3)C(=O)N[C@@H](Cc3ccc(O)cc3)C(=O)N[C@H](C(=O)N[C@@H](CCC(N)=O)C(=O)N[C@@H](CO)C(=O)N[C@@H](CCCNC(=N)N)C(=O)N[C@@H](CCC(=O)O)C(=O)O)[C@@H](C)O)C(C)C)NC(=O)[C@H](CCCNC(=N)N)NC(=O)[C@H](CO)NC(=O)[C@H](Cc3c[nH]cn3)NC(=O)[C@H](CCCNC(=N)N)NC(=O)[C@H](C)NC(=O)[C@H](Cc3ccccc3)NC(=O)[C@H](CO)NC(=O)[C@@H]3CCCN3C(=O)CNC(=O)[C@H](CCCCN)NC(=O)[C@H](CCC(N)=O)NC2=O)NC(=O)[C@@H]2CCCN2C(=O)[C@@H]2CCCN2C(=O)[C@H](CCCNC(=N)N)NC(=O)[C@H](Cc2ccccc2)NC(=O)[C@H](CC(C)C)NC(=O)[C@H](CCCCN)NC(=O)[C@H](CC(N)=O)NC(=O)[C@@H]2CCCN2C(=O)[C@H](CCC(N)=O)NC(=O)[C@H](C)NC(=O)CNC(=O)[C@H](CO)NC(=O)[C@H](CCCCN)NC(=O)[C@H](CCC(=O)O)NC1=O` [αB-VxXXIVA [1], [2]] (H-VRCLEKSGAQPNKLFRPPCCQKGPSFARHSRCVYYTQSRE-OH; disulfide 3-19, 20-32) the IC50 (Rat α3β2 nAChR) was > 30 µM, the IC50 (Rat α2β2 nAChR) was 23.4 µM and the IC50 (Rat α4β4 nAChR) was > 30 µM. The IC50 (Rat α9α10 nAChR) was 1.2 µM, the IC50 (Rat α2β4 nAChR) was > 30 µM and the IC50 (Rat α4β2 nAChR) was > 30 µM. For the same molecule, the IC50 (Rat α7 nAChR) was > 30 µM, the IC50 (Rat α6/α3β2β3 nAChR) was 12.2 µM and the IC50 (Rat α3β4 nAChR) was > 30 µM. For the same molecule, the IC50 (Rat α6/α3β4 nAChR) was 30.1 µM.

For α-Conotoxin Vc1.1, the IC50 (α3β4 nAChR) is given as 4.2 µM, the IC50 (α6/α3β2β3 nAChR) is given as 0.14 µM and the “activity at GABAB receptors” value (GABAB receptors) is given as “activate GABAB receptors”. For the same molecule, the IC50 (α9α10 nAChR [2]) was 0.005 µM.
